Reference: the NIST ThermoML archive (doi:10.1016/j.jct.2011.01.016)

How the values were obtained:
[1] = 101.33 kPa, Liquid; for viscosity: Concentric cylinders viscometry; for mass density: Vibrating tube method
[2] = xn = mol fraction of the nth substance listed; conditions: 100 kPa, Liquid; for viscosity: Concentric cylinders viscometry; for mass density: Vibrating tube method

CCCCCCCCCCCCCC[P+](CCCCCC)(CCCCCC)CCCCCC.[Cl-] [trihexyl(tetradecyl)phosphonium chloride]
[1]
Conditions	mass density [kg/m3]	viscosity [mPa·s]
278.15 K	901.6	15339
283.15 K	898.6	9447.7
288.15 K	895.7	6088.5
293.15 K	892.8	4030.4
298.15 K	889.9	2729.1
303.15 K	887	1890.3
308.15 K	884	1336.4
313.15 K	881.1	962.5
318.15 K	878.2	705.75
323.15 K	875.3	525.98
328.15 K	872.3	398.19
333.15 K	869.5	305.73
338.15 K	866.6	237.78
343.15 K	863.7	187.39
348.15 K	860.8	149.21
353.15 K	858	120.11
358.15 K	855.1	97.66
363.15 K	852.3	80.17

CCCCCCCCCCCCCC[P+](CCCCCC)(CCCCCC)CCCCCC.[Cl-] [trihexyl(tetradecyl)phosphonium chloride] + O
[2], x2 = 0.818
Conditions	mass density [kg/m3]	viscosity [mPa·s]
298.15 K	901.6	134.72
303.15 K	898.3	103.12
308.15 K	895	80.2
313.15 K	891.7	63.3
318.15 K	888.4	50.65
323.15 K	885.1	41.05
328.15 K	881.8	33.64
333.15 K	878.5	27.88
338.15 K	875.2	23.33
343.15 K	871.9	19.71
348.15 K	868.6	16.79
353.15 K	865.3	14.4
358.15 K	862	12.44
363.15 K	858.6	10.81

CCCCCCCCCCCCCC[P+](CCCCCC)(CCCCCC)CCCCCC.CS(=O)(=O)[O-] [trihexyltetradecylphosphonium methanesulfonate] + O
[2], x2 = 0.825
Conditions	mass density [kg/m3]	viscosity [mPa·s]
298.15 K	935.1	126.55
303.15 K	931.8	97.43
308.15 K	928.4	76.18
313.15 K	925.1	60.41
318.15 K	921.7	48.54
323.15 K	918.4	39.48
328.15 K	915	32.49
333.15 K	911.6	27.02
338.15 K	908.2	22.69
343.15 K	904.8	19.23
348.15 K	901.4	16.45
353.15 K	898	14.16
358.15 K	894.6	12.28
363.15 K	891.2	10.71

CC(CC(C)(C)C)CP(=O)([O-])CC(C)CC(C)(C)C.CCCCCCCCCCCCCC[P+](CCCCCC)(CCCCCC)CCCCCC + O
[2], x2 = 0.876
Conditions	mass density [kg/m3]	viscosity [mPa·s]
298.15 K	907.3	173.82
303.15 K	903.9	128.58
308.15 K	900.5	97.03
313.15 K	897.2	74.52
318.15 K	893.8	58.16
323.15 K	890.4	46.06
328.15 K	887.1	37
333.15 K	883.6	30.09
338.15 K	880.2	24.76
343.15 K	876.8	20.59
348.15 K	873.4	17.3
353.15 K	869.9	14.66
358.15 K	866.5	12.53
363.15 K	863.1	10.78

CCCCCCCCCC(=O)[O-].CCCCCCCCCCCCCC[P+](CCCCCC)(CCCCCC)CCCCCC [trihexyltetradecylphosphonium decanoate] + O
[2], x2 = 0.872
Conditions	mass density [kg/m3]	viscosity [mPa·s]
298.15 K	901.2	90.95
303.15 K	897.8	70.57
308.15 K	894.5	55.66
313.15 K	891.1	44.65
318.15 K	887.7	36.26
323.15 K	884.3	29.77
328.15 K	880.9	24.65
333.15 K	877.5	20.59
338.15 K	874	17.35
343.15 K	870.6	14.72
348.15 K	867.1	12.57
353.15 K	863.7	10.8
358.15 K	860.2	9.345
363.15 K	856.8	8.114

CCCCCCCCCCCCCC[P+](CCCCCC)(CCCCCC)CCCCCC.O=S(=O)([N-]S(=O)(=O)C(F)(F)F)C(F)(F)F + O
[2], x2 = 0.088
Conditions	mass density [kg/m3]	viscosity [mPa·s]
298.15 K	1066.1	300.01
303.15 K	1062.4	224.6
308.15 K	1058.7	170.8
313.15 K	1055	132.06
318.15 K	1051.4	103.5
323.15 K	1047.7	82.08
328.15 K	1044	65.75
333.15 K	1040.4	53.41
338.15 K	1036.7	44.23
343.15 K	1033.1	37.14
348.15 K	1029.6	31.46
353.15 K	1026	26.9
358.15 K	1022.4	23.17
363.15 K	1018.8	20.09

CCCCCCCCCCCCCC[P+](CCCCCC)(CCCCCC)CCCCCC.N#C[N-]C#N [tetradecyl(trihexyl)phosphonium dicyanamide]
[1]
Conditions	mass density [kg/m3]	viscosity [mPa·s]
278.15 K	910.8	1646.8
283.15 K	907.8	1144.9
288.15 K	904.9	816.36
293.15 K	901.9	592.93
298.15 K	899	438.57
303.15 K	896.1	329.68
308.15 K	893.3	251.71
313.15 K	890.4	195
318.15 K	887.6	153.15
323.15 K	884.8	121.78
328.15 K	882	97.96
333.15 K	879.2	79.73
338.15 K	876.4	65.56
343.15 K	873.7	54.43
348.15 K	870.9	45.6
353.15 K	868.1	38.53
358.15 K	865.3	32.85
363.15 K	862.6	28.2

CCCCCCCCCC(=O)[O-].CCCCCCCCCCCCCC[P+](CCCCCC)(CCCCCC)CCCCCC [trihexyltetradecylphosphonium decanoate]
[1]
Conditions	mass density [kg/m3]	viscosity [mPa·s]
278.15 K	893.2	1915.7
283.15 K	890	1292.9
288.15 K	886.9	902.16
293.15 K	883.7	644.41
298.15 K	880.6	471.51
303.15 K	877.5	352.09
308.15 K	874.4	267.73
313.15 K	871.3	207.27
318.15 K	868.3	163
323.15 K	865.3	130.01
328.15 K	862.2	104.89
333.15 K	859.2	85.75
338.15 K	856.2	70.93
343.15 K	853.2	59.27
348.15 K	850.2	49.99
353.15 K	847.3	42.54
358.15 K	844.3	36.46
363.15 K	841.3	31.47

CCCCCCCCCCCCCC[P+](CCCCCC)(CCCCCC)CCCCCC.[Br-] [tetradecyltrihexylphosphonium bromide]
[1]
Conditions	mass density [kg/m3]	viscosity [mPa·s]
278.15 K	967.5	16955
283.15 K	964.4	10457
288.15 K	961.3	6688.3
293.15 K	958.2	4421.3
298.15 K	955.2	2988.4
303.15 K	952.1	2065.2
308.15 K	949	1456.3
313.15 K	946	1046.7
318.15 K	942.9	764.04
323.15 K	939.8	568.06
328.15 K	936.7	428.98
333.15 K	933.7	328.56
338.15 K	930.7	255.03
343.15 K	927.6	200.46
348.15 K	924.6	159.44
353.15 K	921.7	128.21
358.15 K	918.7	104.15
363.15 K	915.7	85.44

CCCCCCCCCCCCCC[P+](CCCCCC)(CCCCCC)CCCCCC.O=S(=O)([N-]S(=O)(=O)C(F)(F)F)C(F)(F)F
[1]
Conditions	mass density [kg/m3]	viscosity [mPa·s]
278.15 K	1081.1	1246.2
283.15 K	1077.4	871.17
288.15 K	1073.6	622.45
293.15 K	1069.8	453.64
298.15 K	1066.1	336.74
303.15 K	1062.4	254.24
308.15 K	1058.8	195.04
313.15 K	1055.2	151.85
318.15 K	1051.6	119.85
323.15 K	1048	95.81
328.15 K	1044.4	77.55
333.15 K	1040.9	63.47
338.15 K	1037.3	52.49
343.15 K	1033.7	43.84
348.15 K	1030.2	36.95
353.15 K	1026.6	31.41
358.15 K	1023.1	26.91

CC(CC(C)(C)C)CP(=O)([O-])CC(C)CC(C)(C)C.CCCCCCCCCCCCCC[P+](CCCCCC)(CCCCCC)CCCCCC
[1]
Conditions	mass density [kg/m3]	viscosity [mPa·s]
278.15 K	897.3	5574.5
283.15 K	894.3	3805.5
288.15 K	891.3	2675.3
293.15 K	888.3	1918.2
298.15 K	885.3	1401.7
303.15 K	882.3	1041.5
308.15 K	879.3	785.77
313.15 K	876.3	601.35
318.15 K	873.4	466.24
323.15 K	870.4	365.83
328.15 K	867.5	290.28
333.15 K	864.6	232.76
338.15 K	861.7	188.43
343.15 K	858.9	153.95
348.15 K	856	126.77
353.15 K	853.2	105.22
358.15 K	850.3	87.92
363.15 K	847.5	73.91

CCCCCCCCCCCCCC[P+](CCCCCC)(CCCCCC)CCCCCC.CS(=O)(=O)[O-] [trihexyltetradecylphosphonium methanesulfonate]
[1]
Conditions	mass density [kg/m3]	viscosity [mPa·s]
278.15 K	940.5	7526.5
283.15 K	937.4	4689.7
288.15 K	934.3	3040.4
293.15 K	931.2	2022.2
298.15 K	928.1	1379.4
303.15 K	925.1	962.83
308.15 K	922	686.13
313.15 K	918.9	498.53
318.15 K	915.9	369.02
323.15 K	912.9	277.77
328.15 K	909.9	212.37
333.15 K	907	164.79
338.15 K	904.1	129.63
343.15 K	901.2	103.34
348.15 K	898.3	83.37
353.15 K	895.3	68.01
358.15 K	892.4	56.06
363.15 K	889.4	46.65
